Reference: patent US10414811B2, “Protease-resistant lipidated GLP-1 analogs” (MEDIMMUNE LIMITED, priority 2015, dated 2019)
pEC50: −log10 of the molar value. Read-outs that look alike come from different tables or passages of the source. Numbered stars: 1 amine (or outer) side, 2 acyl side, 3 side chain; on linkers, the order of the positions; unused ones are H or OH. Square brackets hold non-standard residues; d marks the D form. Side chains are listed from the residue outwards. Peptide text beside a SMILES is read from it. * marks the point of attachment. γGlu = O=C(O)[C@H](CCC(=O)[*:2])N[*:1]; αMeF = C[C@](N)(Cc1ccccc1)C(=O)O; αMeK = C[C@](N)(CCCCN)C(=O)O; Lauroyl = CCCCCCCCCCCC(=O)*; αMeS = C[C@](N)(CO)C(=O)O; AEEA = NCCOCCOCC(=O)O; Aib = CC(C)(N)C(=O)O

Tests used:
[1] = biological target: T1, human GLP-1 receptor (GLP-1R) (Homo sapiens, UniProt P43220); test: cAMP assay, human GLP-1R cells; type: cell-based; conditions: bis-lipidated peptides; for EC50: mean of n1 and n2, read-out: Primary assay EC50 Mean pM GLP-1R
T1 construct: expressed in transfected cells
How it was run: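 Peptide-stimulated cAMP measured by two-step HTRF after a 30 min room-temperature incubation with receptor-expressing cells (hGLP-1R, hGIPR at 1×10^5 cells/ml; hGCGR at 2×10^5 cells/ml). Duplicate dilutions; EC50 from 4-parameter logistic fit of % Delta F.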

[2] = biological target: T2, Neprilysin (Homo sapiens, UniProt P08473); test: Proteolytic resistance to neprilysin (% remaining peptide, RP-HPLC AUC); type: in vitro ADME; conditions: 37° C., pH 8.3; for remaining at 0.5 h: t = 30 min; for remaining at 1 h: t = 1 hr; for remaining at 4 h: t = 4 hr; for remaining at 8 h: t = 8 hr; for remaining at 24 h: t = 24 hr, read-out: Percentage remaining peptide (AUC at specified time-point by RP-HPLC) upon incubation with neprilysin, t = 24 hr
T2 construct: purchased R&D Systems 1182-ZNC-010
Method: Ratio enzyme (units):peptide (μmoles)˜1:33. […] Ratio enzyme (units):peptide (μmoles)˜1:2.5.
15 μL aliquots (˜15 μg initial peptide) of the peptide-enzyme mixture were periodically withdrawn (t=0, 30 mins, 1 hr, 2 hr, 4 hr, 8 hr, 24 hr) and quenched immediately by addition to an equal volume (15 μL) of 5% TFA (v/v) in 1:1 water/acetonitrile to arrest proteolytic activity. 20 μL aliquots (˜10 μg initial peptide) were analyzed by LC/MS and/or analytical RP-HPLC as follows: LC/MS method: Agilent Polaris C8-A column (4.6×100 mm, 3 micron) eluted with a linear binary gradient of 10-90% MeCN (0.1% TFA v/v) in water (0.1% TFA v/v) over 30 mins at 1.5 mL min-1 at ambient temperature with detection by both UV absorption at 210 nm and ionization using a Waters 3100 mass detector (ESI+ mode). Peptide fragments deriving from enzymatic hydrolysis were identified by molecular weight, allowing location of the site of cleavage. Analytical RP-HPLC method: Agilent Polaris C8-A column (4.6×100 mm, 3 micron) eluted with a linear binary gradient of 10-90% MeCN (0.1% TFA v/v) in water (0.1% TFA v/v) over either 10 or 15 mins at 1.5 mL min^−1 at 40° C. with detection by UV absorption at 210 nm. Manual integration (AUC) allowed estimation of remaining intact peptide over the time course of the experiment.
25 μL aliquots (˜6 μg initial peptide) were analyzed by LC/MS and/or analytical RP-HPLC as follows: LC/MS method: Agilent Polaris C8-A column (4.6×100 mm, 3 micron) eluted with a linear binary gradient of 10-90% MeCN (0.1% TFA v/v) in water (0.1% TFA v/v) over 30 mins at 1.5 mL min^−1 at ambient temperature with detection by both UV absorption at 210 nm and ionization using a Waters 3100 mass detector (ESP mode). Peptide fragments deriving from enzymatic hydrolysis were identified by molecular weight, allowing location of the site of cleavage. Analytical RP-HPLC method: Agilent Polaris C8-A column (4.6×100 mm, 3 micron) eluted with a linear binary gradient of 10-90% MeCN (0.1% TFA v/v) in water (0.1% TFA v/v) over either 10 or 15 mins at 1.5 mL min^−1 at 40° C. with detection by UV absorption at 210 nm. Manual integration (AUC) allowed estimation of remaining intact peptide over the time course of the experiment.

[3] = biological target: T3, trypsin (Sus scrofa, UniProt P00761); test: Proteolytic resistance to trypsin (% remaining intact peptide, RP-HPLC AUC); type: in vitro ADME; conditions: pig, porcine pancreatic trypsin, 37° C., pH 7.8, read-out: Percentage remaining intact peptide (AUC by RP-HPLC) upon incubation with trypsin; for remaining at 0.5 h: t = 30 min; for remaining at 1 h: t = 1 hr; for remaining at 2 h: t = 2 hr; for remaining at 4 h: t = 4 hr; for remaining at 8 h: t = 8 hr
T3 construct: purchased Sigma T7409
Description: Ratio enzyme (units):peptide (μmoles)˜1:11. […] Ratio enzyme (units):peptide (μmoles)˜1.2:1.

[4] = biological target: T4, pepsin (Sus scrofa, UniProt P00791); test: Proteolytic resistance to pepsin (% remaining intact peptide, RP-HPLC AUC); type: in vitro ADME; conditions: pig, porcine pepsin, 37° C., pH 2.0, read-out: Percentage remaining intact peptide (AUC by RP-HPLC) upon incubation with pepsin; for remaining at 0.5 h: t = 30 min; for remaining at 1 h: t = 1 hr; for remaining at 2 h: t = 2 hr; for remaining at 4 h: t = 4 hr; for remaining at 8 h: t = 8 hr; for remaining at 24 h: t = 24 hr
T4 construct: purchased Sigma P7012
Method: Lyophilized porcine […] pepsin (Sigma: P7012) was reconstituted to afford a solution of 200 μg/mL (˜500 units/mL) in assay buffer (0.1 M HCl, pH 2.0) to give the enzyme stock solution. […] Ratio enzyme (units):peptide (μmoles)˜1:6. […] Ratio enzyme (units):peptide (μmoles)˜2:1.
Lyophilized porcine […] pepsin (Sigma: P7012) was reconstituted to 200 μg/mL (˜500 units/mL) in assay buffer (1.0 M HCl, pH 2.0) to give the enzyme stock solution.

[5] = biological target: T5, GLP-1R (INS1e assay) (Rattus norvegicus, UniProt P32301); test: INS1e assay, cAMP activity at GLP-1R; type: cell-based; conditions: bis-lipidated peptides; for EC50: mean of n1 and n2, read-out: INS1e assay EC50 Mean pM GLP-1R
T5 construct: endogenous in cells; host or cells: INS-1E cells
T5 sequence (P32301 22-463): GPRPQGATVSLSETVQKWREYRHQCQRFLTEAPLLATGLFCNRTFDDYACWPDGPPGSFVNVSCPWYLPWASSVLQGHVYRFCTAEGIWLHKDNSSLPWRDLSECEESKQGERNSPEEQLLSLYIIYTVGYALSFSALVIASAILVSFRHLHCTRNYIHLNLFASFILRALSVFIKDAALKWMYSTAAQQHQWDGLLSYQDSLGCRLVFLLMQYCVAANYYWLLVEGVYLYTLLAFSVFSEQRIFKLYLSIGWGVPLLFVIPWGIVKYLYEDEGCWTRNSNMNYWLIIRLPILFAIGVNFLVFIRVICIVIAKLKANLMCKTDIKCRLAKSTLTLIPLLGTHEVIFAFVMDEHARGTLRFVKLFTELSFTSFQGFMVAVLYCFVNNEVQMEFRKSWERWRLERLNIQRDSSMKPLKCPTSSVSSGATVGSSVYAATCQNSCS
How it was run: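 It pairs cAMP-d2 acceptor with anti-cAMP cryptate donor, both prepared 1/20 in conjugate/lysis buffer, applied as a two-step protocol.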

[6] = Proteolytic resistance to fasted-state simulated intestinal fluid (FASSIF/Pancreatin); type: in vitro ADME; conditions: 37° C., read-out: Percentage remaining intact peptide (AUC by RP-HPLC) upon incubation with fasted-state simulated intestinal fluid (FASSIF/P)
Method: A fresh suspension of FASSIF/P (Fasted-State Simulated Intestinal Fluid+USP Pancreatin®) was prepared according to that described by Galia, Nicolaides, Hörter, Löbenberg, Reppas and Dressman: Pharm. Res. 15 (1998) 698-705. The resulting preparation is proteolytically equivalent to ˜375 units/mL (375 kU/L) and was used immediately without storage. Peptides for evaluation (1.0 mg, ˜250 nmoles) were initially dissolved in pre-warmed FASSIF without Pancreatin® (200 μL) to which was added pre-warmed fresh FASSIF/Pancreatin® (100 μL) to initiate potential digestion. Following momentary vortexing of the Eppendorf reaction tube the mixture was incubated at 37° C. in a thermostatic waterbath for the duration of the experiment. 25 μL aliquots of the co-incubated peptide-enzyme mixture were periodically withdrawn (t=0, 5 m, 10 m, 15 m, 30 m, 1 h, 2 h) and quenched immediately by addition to a solution of 10% TFA in 1:1 water/acetonitrile (75 μL) to arrest proteolytic activity.

[7] = replicate n2, read-out: Primary assay EC50 GLP-1R n2
[8] = replicate n1, read-out: INS1e assay EC50 GLP-1R n1
[9] = replicate n2, read-out: INS1e assay EC50 GLP-1R n2

T1 sequence (P43220 24-463): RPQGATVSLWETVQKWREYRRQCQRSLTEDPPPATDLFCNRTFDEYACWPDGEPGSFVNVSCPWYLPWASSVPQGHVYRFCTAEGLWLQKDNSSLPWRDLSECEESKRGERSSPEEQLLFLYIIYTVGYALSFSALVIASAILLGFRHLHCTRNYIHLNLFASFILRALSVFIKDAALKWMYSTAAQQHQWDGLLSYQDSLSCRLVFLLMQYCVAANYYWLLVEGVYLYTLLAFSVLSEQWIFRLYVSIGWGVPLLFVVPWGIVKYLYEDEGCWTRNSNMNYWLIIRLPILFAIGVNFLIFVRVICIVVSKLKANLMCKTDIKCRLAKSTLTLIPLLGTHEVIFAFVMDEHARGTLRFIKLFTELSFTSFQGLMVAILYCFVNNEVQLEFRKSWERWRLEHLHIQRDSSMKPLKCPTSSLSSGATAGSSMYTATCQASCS
T3 sequence (P00761 9-231): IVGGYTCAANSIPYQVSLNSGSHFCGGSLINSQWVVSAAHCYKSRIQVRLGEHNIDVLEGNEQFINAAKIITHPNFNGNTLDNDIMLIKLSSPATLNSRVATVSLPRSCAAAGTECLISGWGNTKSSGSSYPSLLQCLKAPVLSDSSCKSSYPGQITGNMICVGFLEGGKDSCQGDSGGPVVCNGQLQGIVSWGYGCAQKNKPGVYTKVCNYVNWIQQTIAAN
T4 sequence (P00791 60-385): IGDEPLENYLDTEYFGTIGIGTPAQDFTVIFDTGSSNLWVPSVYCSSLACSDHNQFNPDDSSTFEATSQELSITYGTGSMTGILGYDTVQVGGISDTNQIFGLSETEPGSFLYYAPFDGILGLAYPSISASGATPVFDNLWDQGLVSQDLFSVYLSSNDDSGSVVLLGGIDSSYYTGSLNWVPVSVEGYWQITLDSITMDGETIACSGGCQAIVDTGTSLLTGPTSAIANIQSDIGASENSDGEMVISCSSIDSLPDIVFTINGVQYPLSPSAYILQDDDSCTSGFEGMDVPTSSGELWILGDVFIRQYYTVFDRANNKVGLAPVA
T2 sequence (P08473 whole entry): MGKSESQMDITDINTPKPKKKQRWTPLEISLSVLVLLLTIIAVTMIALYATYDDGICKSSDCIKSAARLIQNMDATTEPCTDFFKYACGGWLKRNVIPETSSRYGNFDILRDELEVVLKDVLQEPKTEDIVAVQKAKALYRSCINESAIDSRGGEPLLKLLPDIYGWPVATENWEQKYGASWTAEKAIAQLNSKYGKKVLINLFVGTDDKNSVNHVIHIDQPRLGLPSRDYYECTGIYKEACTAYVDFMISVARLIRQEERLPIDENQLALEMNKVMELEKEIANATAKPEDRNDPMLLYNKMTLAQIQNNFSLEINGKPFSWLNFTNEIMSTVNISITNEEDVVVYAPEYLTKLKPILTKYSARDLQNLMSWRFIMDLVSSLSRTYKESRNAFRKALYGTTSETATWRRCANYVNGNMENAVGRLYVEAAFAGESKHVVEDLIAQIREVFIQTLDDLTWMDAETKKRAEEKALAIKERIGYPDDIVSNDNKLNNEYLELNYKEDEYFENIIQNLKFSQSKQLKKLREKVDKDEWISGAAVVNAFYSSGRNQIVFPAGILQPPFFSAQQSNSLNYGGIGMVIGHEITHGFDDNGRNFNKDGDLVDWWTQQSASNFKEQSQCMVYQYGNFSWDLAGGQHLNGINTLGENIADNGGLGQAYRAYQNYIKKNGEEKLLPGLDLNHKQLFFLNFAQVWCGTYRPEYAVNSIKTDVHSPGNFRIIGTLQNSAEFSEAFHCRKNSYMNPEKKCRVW

Compound | EC50 [1] [pM] | pEC50 [1, 7] | remaining at 0.5 h ([2]; recombinant neprilysin) [%] | remaining at 1 h ([2]; recombinant neprilysin) [%] | remaining at 4 h ([2]; recombinant neprilysin) [%] | remaining at 8 h ([2]; recombinant neprilysin) [%] | remaining at 24 h ([2]; recombinant neprilysin) [%] | Percentage remaining peptide (AUC at specified time-point by RP-HPLC) upon incubation with neprilysin, t = 0 [2] [%] | remaining at 0.5 h [3] [%] | remaining at 1 h [3] [%] | remaining at 2 h [3] [%] | remaining at 4 h [3] [%] | remaining at 8 h [3] [%] | remaining at 0.5 h [4] [%] | remaining at 1 h [4] [%] | remaining at 2 h [4] [%] | remaining at 4 h [4] [%] | remaining at 8 h [4] [%] | remaining at 24 h [4] [%] | EC50 [5] [pM] | also measured
CCCCCCCCCCCC(=O)N[C@@H](CCC(=O)NCCOCCOCC(=O)NCCOCCOCC(=O)NCCCC[C@H](NC(=O)[C@H](C)NC(=O)[C@@H](NC(=O)[C@H](Cc1ccccc1)NC(=O)[C@H](CCC(=O)O)NC(=O)[C@](C)(CCCCN)NC(=O)[C@H](C)NC(=O)[C@H](C)NC(=O)[C@H](CCC(=O)O)NC(=O)CNC(=O)[C@H](CCC(=O)O)NC(=O)[C@H](CCCCNC(=O)COCCOCCNC(=O)COCCOCCNC(=O)CC[C@H](NC(=O)CCCCCCCCCCC)C(=O)O)NC(=O)[C@H](Cc1ccc(O)cc1)NC(=O)[C@H](CO)NC(=O)[C@](C)(CO)NC(=O)[C@@H](NC(=O)[C@H](CC(=O)O)NC(=O)[C@H](CO)NC(=O)[C@@H](NC(=O)[C@](C)(Cc1ccccc1)NC(=O)[C@H](CO)NC(=O)CNC(=O)[C@H](CCC(=O)O)NC(=O)C(C)(C)NC(=O)[C@@H](N)Cc1c[nH]cn1)[C@@H](C)O)C(C)C)[C@@H](C)CC)C(=O)N[C@H](C(=O)N[C@H](C(=O)N[C@@H](CCC(=O)O)C(=O)NCC(=O)NCC(N)=O)C(C)C)C(C)C)C(=O)O [compound 269] (H-H[Aib]EGS[αMeF]TSDV[αMeS]SYK([AEEA-AEEA-γGlu-Lauroyl])EGEAA[αMeK]EFIAK([AEEA-AEEA-γGlu-Lauroyl])VVEGG-NH2) | 4.6 | 11.28 | 95.7 | 92.8 | 95.3 | 89.7 | 89.3 | 100 | 96.8 | 95.2 | 89.9 | 85.2 | 82.9 | 74.9 | 55.8 | 38.6 | 22.4 | 13.4 | 0 | 212 | pEC50 ([1]; replicate n1, read-out: Primary assay EC50 GLP-1R n1): 11.40; remaining at 24 h ([3]; t = 24 hr): 74.7%; pEC50 [5, 8]: 9.61; pEC50 [5, 9]: 9.74
CCCCCCCCCCCC(=O)N[C@@H](CCC(=O)NCCOCCOCC(=O)NCCOCCOCC(=O)NCCCC[C@H](NC(=O)[C@H](C)NC(=O)[C@@H](NC(=O)[C@H](Cc1ccccc1)NC(=O)[C@H](CCC(=O)O)NC(=O)[C@](C)(CCCCN)NC(=O)[C@H](C)NC(=O)[C@H](C)NC(=O)[C@H](CCC(=O)O)NC(=O)CNC(=O)[C@H](CCC(=O)O)NC(=O)[C@H](CC(C)C)NC(=O)[C@H](CCCCNC(=O)COCCOCCNC(=O)COCCOCCNC(=O)CC[C@H](NC(=O)CCCCCCCCCCC)C(=O)O)NC(=O)[C@H](CO)NC(=O)[C@](C)(CO)NC(=O)[C@@H](NC(=O)[C@H](CC(=O)O)NC(=O)[C@H](CO)NC(=O)[C@@H](NC(=O)[C@](C)(Cc1ccccc1)NC(=O)[C@H](CO)NC(=O)CNC(=O)[C@H](CCC(=O)O)NC(=O)C(C)(C)NC(=O)[C@@H](N)Cc1c[nH]cn1)[C@@H](C)O)C(C)C)[C@@H](C)CC)C(=O)N[C@H](C(=O)N[C@H](C(=O)N[C@@H](CCC(=O)O)C(=O)NCC(=O)NCC(N)=O)C(C)C)C(C)C)C(=O)O [compound 263] (H-H[Aib]EGS[αMeF]TSDV[αMeS]SK([AEEA-AEEA-γGlu-Lauroyl])LEGEAA[αMeK]EFIAK([AEEA-AEEA-γGlu-Lauroyl])VVEGG-NH2) | 1.2 | 11.84 | 98.3 | 99.5 | 92.3 | 91.2 | 91.9 | 100 | 98.9 | 97.2 | 94.8 | 89.8 | 85 | 57.7 | 36 | 14.3 | 5.1 | 1.1 | 0 | 132 | remaining at 2 h ([2]; recombinant neprilysin, t = 2 hr): 97.7%; remaining at 5 min, […] ([6]; t = 5 m): 93.1%; remaining at 1 h, […] ([6]; t = 1 h): 35.1%; pEC50 [5, 8]: 9.92; pEC50 [5, 9]: 9.84
